Data: patent US20080081039A1, “Inorganic Selenium For Treatment Of Cancer” (priority 2004, published 2008)

Key:
[1] = test system: DU145 prostate cancer cells; conditions: cited from earlier work
[2] = test system: Akt; experiment: Activation of Akt by different selenium compounds in PC-3 cells, immunoblot; assay type: cell-based, human; conditions: 125 μM, 6 hours, serum starved PC-3 cells
Text: Signal intensities from the developed films were scanned and intensities of active Akt correlated to total Akt levels were plotted.

[3] = test system: PC-3 cells; experiment: MTT growth assay; assay type: cell-based, human; conditions: 0.25 and 0.5 mM, 72 hour
Procedure: MTT Growth Assays involved plating 1×10^3 PC-3 cells per well in a 96 well plate and allowing the cells to attach overnight. […] The controls for this experiment received an equal volume of LY294002 diluent (DMSO). MTT growth assays were then performed according to the manufacturer's protocol (Sigma).

[4] = test system: cell cycle regulatory proteins (cyclin D1, cdk4, cdk6, p27KIP1, p21CIP1); experiment: Immunoblot of cell cycle regulatory proteins in PC-3 cells; assay type: cell-based, human; conditions: 0.5 mM, compared to control (0 hours), FIG. 3C
Text: The following antibodies were obtained from Cell Signaling Technology (Beverly, Mass., USA) unless otherwise stated: anti-p27^KIP1 (bd Pharmingen), anti-p21^CIP1 , ANTI-CYCLIN d1, ANTI-CYCLIN d3, ANTI-CDK4, ANTI-CDK6, ANTI-PHOSPHO rb (Ser807/811), anti-RB, anti-phospho Akt (Ser473), anti-phospho Akt (Thre308), anti-Akt, anti-phospho PDK1 (Ser241), anti-phospho PDK1 (Tyr373/376), anti-phospho GSK-3β, anti-phospho mTOR (Ser2448), anti-mTOR, anti-βIII tubulin (Promega).
To determine the effect of selenate on the phosphorylation of proteins involved in the PI3K/Akt signaling cascade, 5×10^5 PC-3 cells were allowed to attach for 10 hours. […] Cells were lysed in ELB (250 mM NaCl, 50 mM HEPES pH 7.0, 5 mM EDTA, 0.5 mM DTT, 0.2% TX100, 20 mM sodium fluoride, 2 mM sodium pervanadate, Complete Protease Inhibitor Cocktail (Roche)). Lysates were centrifuged for 15 minutes at 4° C. Protein concentration was determined using the BCA system (Sigma) and equal amounts of protein were loaded into each lane of a SDS-polyacrylamide gel. The proteins were transferred onto PVDF (Millipore) membranes and detected with anti-mouse or anti-rabbit secondary antibodies couples to horseradish peroxidase (HRP) and chemiluminescence using the SuperSignal West Dura (Pierce). Membranes were stripped using the Restore Western Blot Stripping Buffer (Pierce).

[5] = test system: GFP-FKHR fusion protein; experiment: GFP-FKHR cellular localization in transfected PC-3 cells; assay type: cell-based, human; conditions: LY294002 50 μM 1 hour; sodium selenate or selenomethionine 0.5 mM 3 hours
Procedure: The day before transfection, 5×10^5 PC-3 cells were seeded in 24-well dishes and transiently transfected with 0.8 μg of pcDNA3-GFP-FKHRwt construct (kind gift Dr Bill Sellers, Dana-Farber Institute, Boston) using Lipofectamine 2000 (Invitrogen). Cells were permeabilized in 0.2% Triton X-100 and the nuclear contents stained with DAPI. Coverslips were mounted with fluorescent mounting medium (DAKO). The cellular distribution of green fluorescence was determined in dual fluorescent cells using a Leica epifluorescent microscope.
Reintroducing PTEN function in such cells induces translocation of FKHR to the nucleus eventually causing G1 arrest in PTEN-null cells (Nakamura et al 2000, supra).

[6] = test system: human prostate cancer PC-3 cells; experiment: Cell toxicity by Trypan Blue Exclusion, selenate versus selenite; conditions: 5 μM or 50 μM, 24 to 96 hours
Procedure: 5×10^3 human prostate cancer PC-3 cells were seeded in a 24-well dish and 8 hours later were treated with either 5 μM or 50 μM of selenate or selenite. The dose range of 5 μM or 50 μM is equivalent to 0.1 mg/kg to 1.25 mg/kg. Cells were harvested at 24, 48, 72 and 96 hours following the addition of selenate or selenite and the percentage of viable cells as assessed by Trypan Blue staining was determined.
All cells in the tissue culture wells were then harvested sequentially at periods between 24 and 96 hours following addition of the treatments. The percentage of viable cells were then determined using the Trypan Blue exclusion assay.

[7] = test system: β-tubulin; experiment: β-tubulin levels in treated PC-3 cell lysates; assay type: cell-based, human
[8] = test system: Histone H2A.X; conditions: 500 μM
Procedure: 5×10^5 PC-3 cells were plated in a 6 well dish and 24 hours later cells were treated with paclitaxel at 1 μg/mL or 10 μg/mL or selenate 500 μM (19 mg/kg) or selenite 500 μM (18 mg/kg) for the indicated times. Cells were then washed in PBS, lysed in ELB lysis buffer and whole cell lysates run on a SDS-PAGE gel and blotted and probed with the indicated antibodies. Phosphorylation of Histone H2AX occurs within minutes of DNA damage, typically via DNA double or single strand breaks and is a very sensitive readout of DNA damage.
To ascertain the differences between selenate, selenite and the taxane, paclitaxel in inducing DNA damage PC-3 cells were treated with these compounds for increasing time periods then lysed. The protein extracts were probed for phosphorylation of Histone H2A.X using a phosphorylation specific antibody.

[9] = at certain doses; cited from earlier work

## C[Se](=O)O [Methylseleninic acid]
[1]; 3 μM
  apoptosis and phosphorylation of Akt in DU-145 cells: not associated with apoptosis or with decreased phosphorylation of Akt
[1]
  G1 arrest and apoptosis markers in DU145 cells: induces G1 arrest, as well as DNA fragmentation and caspase mediated cleavage of PARP
[1]; doses as low as 3 μM
  G1 arrest of DU-145 cells: induced G1 arrest
[1]; higher doses of 5 μM
  Akt activation in DU-145 cells: dose-dependent decline in Akt activation
  apoptosis in DU-145 cells: initiation of caspase-mediated apoptosis

## O=[Se]=O [selenium dioxide]
[2]
  activation of Akt (phosphorylated Akt relative to total Akt): induce activation of Akt above control (con) levels

## O=[Se](O)O [Selenous acid]
[2]
  activation of Akt (phosphorylated Akt relative to total Akt): induce activation of Akt above control (con) levels

## S=[Se]=S [selenium sulfide]
[2]
  activation of Akt (phosphorylated Akt relative to total Akt): induce activation of Akt above control (con) levels

## N[C@@H](C[SeH])C(=O)O [Selenocysteine]
[2]
  activation of Akt (phosphorylated Akt relative to total Akt): induce activation of Akt above control (con) levels

## C[Se]CC[C@H](N)C(=O)O [selenomethionine, reference compound]
[3]
  PC-3 cell proliferation (MTT proliferative index): less effective in reducing cell proliferation
[4]
  p27KIP1 total protein levels, inorganic versus organic selenium: little effect
[5]
  relocalization of GFP-FKHR from the cytoplasm to the nucleus: unable to induce relocalization

## O=[Se](O)O [sodium selenite]
[6]
  cytotoxic effect (Trypan Blue exclusion): cytotoxic effect
[7]; 100 μM, 250 μM or 500 μM, 16 hours
  cellular tubulin degradation: marked degradation
[7]; 500 μM, increasing time periods
  β-tubulin levels: concomitant decrease in β-tubulin levels
[8]
  time of treatment to DNA damage: ≤ 30 min
[9]
  toxicity to cells: toxic to cells
